# Legend:
# [1] = test system: human breast cancer MCF7 cells; assay: Efficacy in xenograft model of human breast cancer; format: in vivo, mice
# Experimental: To evaluate the efficacy of tumor growth inhibition, the compound 8b was studied using human cancer mouse models. The models are prepared by subcutaneously or orthotopically implanting mice with human cancer cells. When the tumor size of the mice develops (e.g., reaches 100 mm^3), the mice are divided into groups for treatment with compound 8b (where different groups receiving the compound 8b may be administered different amounts of the compound 8b) or are provided no compound as a control. The mice are treated (e.g., orally administered a compound of the invention) for a period of time. During the course of the study, the tumor is measured and the weight of the mice is determined. After the treatment period, the mice are sacrificed shortly (e.g. 1 or 2 hours) after the final dose. Blood and tissue are collected for biochemical analysis.
# To evaluate the efficacy of tumor growth inhibition, compound 8b was studied using a human breast cancer mouse model. […]
# The appropriate amount of compound 8b was sonicated in a PEG-400 solution (80% w/v in case of Example B6B; and 50% w/v in case of Example B6C) to completely dissolve the compound, followed by dropwise addition of the required amount of H2O. […] During the course of the study, the tumor was measured and the weight of the mice was determined. […]
# PAK5(PAK7) = PAK5(PAK7) (Homo sapiens, UniProt Q9P286); assay: Caliper kinase profiling: PAK5(PAK7); format: biochemical; details: read-out: Average % Inh @ 1 μM
# FGR = FGR (Homo sapiens, UniProt P09769); assay: Caliper kinase profiling: FGR; format: biochemical
# JAK2 = JAK2 (Homo sapiens, UniProt O60674); assay: Caliper kinase profiling: JAK2; format: biochemical; details: JAK2, 1 μM; read-out: Average % Inh @ 1 μM
# EPHA2 = EPHA2 (Homo sapiens, UniProt P29317); assay: Caliper kinase profiling: EPHA2; format: biochemical; details: EPHA2, 1 μM; read-out: Average % Inh @ 1 μM
# EPHA1 = target: T1, EPHA1 (Homo sapiens, UniProt P21709); assay: Caliper kinase profiling: EPHA1; format: biochemical
# T1 sequence (P21709 26-976): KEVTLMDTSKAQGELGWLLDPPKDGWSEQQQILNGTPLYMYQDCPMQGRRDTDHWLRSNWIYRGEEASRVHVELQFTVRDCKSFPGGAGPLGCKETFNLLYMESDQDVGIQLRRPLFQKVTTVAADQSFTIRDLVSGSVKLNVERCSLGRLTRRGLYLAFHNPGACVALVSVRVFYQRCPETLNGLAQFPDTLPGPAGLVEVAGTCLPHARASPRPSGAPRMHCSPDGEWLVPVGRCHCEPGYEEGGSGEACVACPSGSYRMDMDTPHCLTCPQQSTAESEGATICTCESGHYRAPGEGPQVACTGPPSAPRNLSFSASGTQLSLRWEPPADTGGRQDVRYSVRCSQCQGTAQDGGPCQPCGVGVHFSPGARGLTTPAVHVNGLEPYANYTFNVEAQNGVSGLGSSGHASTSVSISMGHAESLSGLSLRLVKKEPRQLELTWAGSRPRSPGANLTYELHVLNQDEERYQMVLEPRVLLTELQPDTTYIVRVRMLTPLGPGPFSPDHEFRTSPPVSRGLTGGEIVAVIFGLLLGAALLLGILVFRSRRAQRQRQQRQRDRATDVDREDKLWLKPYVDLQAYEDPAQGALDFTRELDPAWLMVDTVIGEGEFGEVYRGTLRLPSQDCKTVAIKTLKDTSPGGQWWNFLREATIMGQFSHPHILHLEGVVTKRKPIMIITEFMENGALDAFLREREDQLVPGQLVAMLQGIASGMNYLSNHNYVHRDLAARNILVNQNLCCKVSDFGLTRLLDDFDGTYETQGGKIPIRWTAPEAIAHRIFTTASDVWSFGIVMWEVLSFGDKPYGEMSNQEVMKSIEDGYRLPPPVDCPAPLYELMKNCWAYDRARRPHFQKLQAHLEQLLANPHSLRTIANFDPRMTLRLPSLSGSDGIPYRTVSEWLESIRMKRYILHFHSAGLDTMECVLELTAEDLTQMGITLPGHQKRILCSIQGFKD
# FGFR2 = FGFR2 (Homo sapiens, UniProt P21802); assay: Caliper kinase profiling: FGFR2; format: biochemical
# Abl(H396P) = target: T2, Abl(H396P) (Homo sapiens, UniProt P00519, H396P); assay: Caliper kinase profiling: Abl(H396P); format: biochemical; details: read-out: Average % Inh @ 1 μM
# T2 construct: purchased Caliper LifeSciences (ProfilerPro Kinase Selectivity Assay Kits)
# FYN = FYN (Homo sapiens, UniProt P06241); assay: Caliper kinase profiling: FYN; format: biochemical
# DDR2 = DDR2 (Homo sapiens, UniProt Q16832); assay: Caliper kinase profiling: DDR2; format: biochemical; details: DDR2, 1 μM; read-out: Average % Inh @ 1 μM
# [2] = 10 nM, read-out: Average % Inh @ 10 nM
# [3] = 100 nM, read-out: Average % Inh @ 100 nM
# [4] = 1 μM, read-out: Average % Inh @ 1 μM
# FGFR2, sequence (P21802 22-821): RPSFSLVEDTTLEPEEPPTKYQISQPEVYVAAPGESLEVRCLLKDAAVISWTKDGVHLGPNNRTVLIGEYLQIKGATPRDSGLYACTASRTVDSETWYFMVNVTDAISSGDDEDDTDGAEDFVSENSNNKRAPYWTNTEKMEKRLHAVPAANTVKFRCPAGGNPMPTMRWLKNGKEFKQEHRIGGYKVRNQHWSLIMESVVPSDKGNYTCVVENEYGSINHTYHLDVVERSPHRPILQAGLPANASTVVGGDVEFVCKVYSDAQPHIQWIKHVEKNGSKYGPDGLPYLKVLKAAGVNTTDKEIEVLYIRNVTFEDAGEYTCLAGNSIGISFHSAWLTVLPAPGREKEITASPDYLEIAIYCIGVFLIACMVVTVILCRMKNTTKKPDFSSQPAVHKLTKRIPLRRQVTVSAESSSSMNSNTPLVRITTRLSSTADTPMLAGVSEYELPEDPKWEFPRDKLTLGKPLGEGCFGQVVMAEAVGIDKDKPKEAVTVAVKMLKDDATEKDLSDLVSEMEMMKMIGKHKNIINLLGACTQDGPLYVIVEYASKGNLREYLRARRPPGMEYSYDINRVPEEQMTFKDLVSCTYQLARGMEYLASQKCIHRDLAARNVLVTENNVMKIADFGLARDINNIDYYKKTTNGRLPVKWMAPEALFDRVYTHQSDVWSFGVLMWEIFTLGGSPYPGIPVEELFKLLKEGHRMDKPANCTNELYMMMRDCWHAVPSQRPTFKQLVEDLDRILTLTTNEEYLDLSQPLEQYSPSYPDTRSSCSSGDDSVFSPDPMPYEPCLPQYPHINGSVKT
# FGR, sequence (P09769 whole entry): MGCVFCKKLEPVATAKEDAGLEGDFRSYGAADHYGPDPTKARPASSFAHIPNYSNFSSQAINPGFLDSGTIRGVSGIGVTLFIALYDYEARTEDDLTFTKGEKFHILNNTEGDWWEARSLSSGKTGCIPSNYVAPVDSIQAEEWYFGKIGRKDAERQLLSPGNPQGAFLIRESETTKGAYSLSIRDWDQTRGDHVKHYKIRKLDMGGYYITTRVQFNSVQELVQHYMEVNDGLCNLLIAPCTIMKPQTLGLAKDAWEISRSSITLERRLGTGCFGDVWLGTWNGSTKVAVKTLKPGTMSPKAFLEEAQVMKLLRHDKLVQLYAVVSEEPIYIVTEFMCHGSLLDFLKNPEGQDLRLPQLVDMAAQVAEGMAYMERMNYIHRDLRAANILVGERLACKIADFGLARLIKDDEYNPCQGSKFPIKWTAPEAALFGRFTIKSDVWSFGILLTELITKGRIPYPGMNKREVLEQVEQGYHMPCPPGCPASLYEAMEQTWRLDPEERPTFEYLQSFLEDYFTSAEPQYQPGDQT
# FYN, sequence (P06241 whole entry): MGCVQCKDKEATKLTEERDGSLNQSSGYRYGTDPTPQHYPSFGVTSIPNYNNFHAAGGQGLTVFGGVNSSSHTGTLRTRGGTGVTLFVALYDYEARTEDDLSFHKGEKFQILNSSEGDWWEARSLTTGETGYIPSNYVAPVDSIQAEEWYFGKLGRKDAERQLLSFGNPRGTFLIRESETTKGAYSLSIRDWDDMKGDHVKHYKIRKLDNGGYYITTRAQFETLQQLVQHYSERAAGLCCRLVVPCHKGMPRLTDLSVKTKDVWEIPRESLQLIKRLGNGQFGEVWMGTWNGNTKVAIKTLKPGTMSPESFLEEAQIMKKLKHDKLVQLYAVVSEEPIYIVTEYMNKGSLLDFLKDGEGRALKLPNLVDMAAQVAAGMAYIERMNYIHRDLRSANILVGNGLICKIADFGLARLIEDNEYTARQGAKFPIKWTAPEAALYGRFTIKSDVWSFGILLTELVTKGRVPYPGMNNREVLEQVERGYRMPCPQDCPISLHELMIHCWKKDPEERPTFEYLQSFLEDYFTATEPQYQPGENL
# JAK2, sequence (O60674 whole entry): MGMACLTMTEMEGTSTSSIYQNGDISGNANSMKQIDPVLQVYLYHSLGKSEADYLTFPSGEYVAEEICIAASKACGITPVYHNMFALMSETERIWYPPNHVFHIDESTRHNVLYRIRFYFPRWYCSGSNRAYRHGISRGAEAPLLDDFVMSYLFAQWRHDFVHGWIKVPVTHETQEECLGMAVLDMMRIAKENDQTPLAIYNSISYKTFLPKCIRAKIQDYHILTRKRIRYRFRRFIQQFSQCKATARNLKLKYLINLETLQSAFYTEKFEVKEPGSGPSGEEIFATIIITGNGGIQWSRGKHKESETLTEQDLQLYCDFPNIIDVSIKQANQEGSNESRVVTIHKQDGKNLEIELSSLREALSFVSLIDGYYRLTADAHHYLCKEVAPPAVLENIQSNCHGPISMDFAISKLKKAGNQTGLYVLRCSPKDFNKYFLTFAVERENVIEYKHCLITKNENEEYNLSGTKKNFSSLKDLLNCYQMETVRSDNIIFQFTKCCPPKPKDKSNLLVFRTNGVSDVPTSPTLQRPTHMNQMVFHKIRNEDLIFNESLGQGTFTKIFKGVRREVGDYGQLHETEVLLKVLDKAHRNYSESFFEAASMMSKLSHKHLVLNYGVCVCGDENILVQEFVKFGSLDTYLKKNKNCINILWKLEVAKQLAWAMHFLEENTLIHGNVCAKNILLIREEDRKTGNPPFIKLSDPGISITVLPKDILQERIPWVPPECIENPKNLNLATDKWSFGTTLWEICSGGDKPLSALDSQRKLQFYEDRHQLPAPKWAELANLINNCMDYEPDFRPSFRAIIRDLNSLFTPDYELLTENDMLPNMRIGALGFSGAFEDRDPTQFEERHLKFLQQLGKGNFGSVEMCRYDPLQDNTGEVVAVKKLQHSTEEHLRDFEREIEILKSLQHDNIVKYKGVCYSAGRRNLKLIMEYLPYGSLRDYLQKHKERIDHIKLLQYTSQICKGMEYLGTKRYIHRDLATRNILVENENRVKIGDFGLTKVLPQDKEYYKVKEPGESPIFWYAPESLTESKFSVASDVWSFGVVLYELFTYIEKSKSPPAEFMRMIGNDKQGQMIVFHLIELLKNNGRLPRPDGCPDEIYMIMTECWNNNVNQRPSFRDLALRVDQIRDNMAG
# PAK5(PAK7), sequence (Q9P286 whole entry): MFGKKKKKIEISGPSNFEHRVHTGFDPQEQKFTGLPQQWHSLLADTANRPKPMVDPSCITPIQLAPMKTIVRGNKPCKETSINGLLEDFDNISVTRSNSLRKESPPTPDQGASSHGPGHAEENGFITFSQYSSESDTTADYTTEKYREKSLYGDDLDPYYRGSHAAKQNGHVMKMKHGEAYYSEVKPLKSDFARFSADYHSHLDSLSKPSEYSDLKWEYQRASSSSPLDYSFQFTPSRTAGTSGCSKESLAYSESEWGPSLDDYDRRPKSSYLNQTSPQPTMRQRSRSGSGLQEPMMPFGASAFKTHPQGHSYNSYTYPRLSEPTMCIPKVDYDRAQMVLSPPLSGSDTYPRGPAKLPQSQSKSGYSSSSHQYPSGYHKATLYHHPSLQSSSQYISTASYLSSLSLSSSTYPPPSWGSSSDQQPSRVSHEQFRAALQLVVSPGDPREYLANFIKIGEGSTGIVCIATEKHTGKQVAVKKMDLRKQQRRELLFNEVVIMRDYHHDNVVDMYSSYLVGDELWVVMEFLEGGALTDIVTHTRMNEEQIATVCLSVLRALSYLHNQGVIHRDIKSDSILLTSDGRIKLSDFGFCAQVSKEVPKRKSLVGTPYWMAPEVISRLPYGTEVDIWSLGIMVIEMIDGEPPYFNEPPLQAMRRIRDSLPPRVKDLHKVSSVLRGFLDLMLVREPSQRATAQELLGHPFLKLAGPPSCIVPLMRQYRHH
# EPHA2, sequence (P29317 24-976): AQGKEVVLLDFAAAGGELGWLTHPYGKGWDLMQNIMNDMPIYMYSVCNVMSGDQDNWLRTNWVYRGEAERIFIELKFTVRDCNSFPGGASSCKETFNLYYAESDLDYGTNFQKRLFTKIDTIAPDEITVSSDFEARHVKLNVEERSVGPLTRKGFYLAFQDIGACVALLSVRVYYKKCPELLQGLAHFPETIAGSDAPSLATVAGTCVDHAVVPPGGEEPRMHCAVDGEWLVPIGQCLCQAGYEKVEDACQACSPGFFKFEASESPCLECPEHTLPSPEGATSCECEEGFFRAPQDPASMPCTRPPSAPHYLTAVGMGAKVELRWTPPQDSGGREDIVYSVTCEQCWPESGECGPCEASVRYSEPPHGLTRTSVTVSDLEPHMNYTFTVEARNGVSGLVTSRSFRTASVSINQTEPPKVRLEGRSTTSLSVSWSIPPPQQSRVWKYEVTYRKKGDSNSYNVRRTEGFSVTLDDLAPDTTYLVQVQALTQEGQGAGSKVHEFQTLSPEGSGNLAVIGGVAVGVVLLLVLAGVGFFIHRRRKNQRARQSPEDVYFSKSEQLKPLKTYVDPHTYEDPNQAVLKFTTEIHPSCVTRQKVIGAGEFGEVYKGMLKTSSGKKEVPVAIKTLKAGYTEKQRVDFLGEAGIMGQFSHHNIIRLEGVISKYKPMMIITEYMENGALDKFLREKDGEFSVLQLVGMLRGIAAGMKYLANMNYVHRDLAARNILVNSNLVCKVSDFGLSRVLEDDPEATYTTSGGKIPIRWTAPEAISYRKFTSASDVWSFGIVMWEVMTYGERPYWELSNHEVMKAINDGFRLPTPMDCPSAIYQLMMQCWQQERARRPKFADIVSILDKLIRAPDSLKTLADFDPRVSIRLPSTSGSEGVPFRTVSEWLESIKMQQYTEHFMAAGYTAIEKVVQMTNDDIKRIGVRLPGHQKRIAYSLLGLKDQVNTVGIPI
SMILES,"tumor burden ([1]; MCF7 breast cancer model, nude mice, 10 and 15 mg/kg/po, various schedules (FIG. 2))",body weights of the mice ([1]; MCF7 xenograft model (FIG. 4)),inhibition at 1 µM (PAK5(PAK7)) [%],inhibition at 0.01 µM (FGR; [2]) [%],inhibition at 0.1 µM (FGR; [3]) [%],inhibition at 1 µM (FGR; [4]) [%],inhibition at 1 µM (JAK2) [%],inhibition at 1 µM (EPHA2) [%],"inhibition at 0.01 µM (EPHA1; EPHA1, 10 nM, read-out: Average % Inh @ 10 nM) [%]","inhibition at 0.1 µM (EPHA1; EPHA1, 100 nM, read-out: Average % Inh @ 100 nM) [%]","inhibition at 1 µM (EPHA1; EPHA1, 1 μM, read-out: Average % Inh @ 1 μM) [%]","inhibition at 0.01 µM (FGFR2; FGFR2, 10 nM, read-out: Average % Inh @ 10 nM) [%]","inhibition at 0.1 µM (FGFR2; FGFR2, 100 nM, read-out: Average % Inh @ 100 nM) [%]","inhibition at 1 µM (FGFR2; FGFR2, 1 μM, read-out: Average % Inh @ 1 μM) [%]",inhibition at 1 µM (Abl(H396P)) [%],inhibition at 0.01 µM (FYN; [2]) [%],inhibition at 0.1 µM (FYN; [3]) [%],inhibition at 1 µM (FYN; [4]) [%],inhibition at 1 µM (DDR2) [%]
"CC(C)c1cc(Nc2nc(N3CCCC3C(=O)Nc3ccc(F)nc3)nc3c2CCC3)n[nH]1 (single isomer, unassigned) [Compound 8b]",dose-dependently and significantly reduced tumor burden,dose-dependently reduced body weights,–,–,–,–,–,–,–,–,–,–,–,–,–,–,–,–,–
"O=C(Nc1ccc(F)nc1)C1CCCN1c1nc2c(c(Nc3cc(C4CC4)[nH]n3)n1)CCC2 (single isomer, unassigned) [Compound 2b, 1-(4-(5-cyclopropyl-1H-pyrazol-3-ylamino)-6,7-dihydro-5H-cyclopenta[d]pyrimidin-2-yl)-N-(6-fluoropyridin-3-yl)pyrrolidine-2-carboxamide]",–,–,40 to 59,< 39,< 39,> 60,> 60,> 60,< 39,40 to 59,> 60,< 39,< 39,> 60,40 to 59,< 39,> 60,> 60,> 60

# Source: patent publication US9422267B2, “Fused pyrimidine compounds and use thereof” (Medivation Technologies, Inc., priority 2012, dated 2016)
